Experimental data: US20140378408A1, “NUCLEOSIDE 5'-PHOSPHOROTHIOATE ANALOGUES AND USES THEREOF” (BAR-ILAN UNIVERSITY, an Israeli University, priority 2012, published 2014)

Legend:
human P2Y11-R = molecular target: T1, human P2Y11-R (Homo sapiens, UniProt Q96G91); assay: [Ca^2+]i response of 1321N1 astrocytoma cells expressing P2Y11-R GFP; format: cell-based
T1 construct: expressed in transfected cells; host or cells: 1321N1 astrocytoma cells
T1 sequence (Q96G91 1-374): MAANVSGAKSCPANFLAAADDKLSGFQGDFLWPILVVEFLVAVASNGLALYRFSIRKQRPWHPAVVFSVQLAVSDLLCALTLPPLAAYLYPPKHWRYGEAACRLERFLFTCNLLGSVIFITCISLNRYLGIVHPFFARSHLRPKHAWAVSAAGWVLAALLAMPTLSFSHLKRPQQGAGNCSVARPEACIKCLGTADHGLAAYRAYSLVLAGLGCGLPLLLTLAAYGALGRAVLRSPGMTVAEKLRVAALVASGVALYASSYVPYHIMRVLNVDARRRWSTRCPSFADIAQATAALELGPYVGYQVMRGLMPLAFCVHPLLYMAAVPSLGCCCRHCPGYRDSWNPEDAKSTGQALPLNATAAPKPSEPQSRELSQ

human NTPDase3 [1] = molecular target: T2, human NTPDase3 (Homo sapiens, UniProt O75355); assay: Inhibition of NTPDase3 activity; conditions: for effect on human NTPDase3 activity: Table 5, ATP and analogue 100 μM, 100% activity = ATP alone; for inhibition of the hydrolysis of ATP by NTPDase3: analogue and ATP 100 μM
T2 sequence (O75355 1-529): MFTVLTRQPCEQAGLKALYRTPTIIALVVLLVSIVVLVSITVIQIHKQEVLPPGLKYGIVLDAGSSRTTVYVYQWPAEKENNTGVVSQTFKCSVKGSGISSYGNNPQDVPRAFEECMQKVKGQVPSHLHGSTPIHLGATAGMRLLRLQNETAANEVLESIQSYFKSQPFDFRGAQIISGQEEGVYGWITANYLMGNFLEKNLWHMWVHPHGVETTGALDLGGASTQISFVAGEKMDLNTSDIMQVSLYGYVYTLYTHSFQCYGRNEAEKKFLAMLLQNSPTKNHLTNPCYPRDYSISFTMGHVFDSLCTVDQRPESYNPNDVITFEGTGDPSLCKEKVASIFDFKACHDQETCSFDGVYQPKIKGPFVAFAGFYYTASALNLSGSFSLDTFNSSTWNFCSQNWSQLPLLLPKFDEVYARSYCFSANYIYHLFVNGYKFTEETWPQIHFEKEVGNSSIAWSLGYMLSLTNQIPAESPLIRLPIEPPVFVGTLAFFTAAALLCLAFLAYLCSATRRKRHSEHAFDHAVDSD

human NTPDase2 = molecular target: T3, human NTPDase2 (Homo sapiens, UniProt Q9Y5L3); assay: Inhibition of NTPDase2 activity; format: biochemical; conditions: for effect on human NTPDase2 activity: Table 5, ATP and analogue 100 μM, 100% activity = ATP alone; for inhibition of the hydrolysis of ATP by NTPDase2: analogue and ATP 100 μM
T3 construct: made in house; host or cells: COS-7 cells (transfected; protein extract)
T3 sequence (Q9Y5L3 1-495): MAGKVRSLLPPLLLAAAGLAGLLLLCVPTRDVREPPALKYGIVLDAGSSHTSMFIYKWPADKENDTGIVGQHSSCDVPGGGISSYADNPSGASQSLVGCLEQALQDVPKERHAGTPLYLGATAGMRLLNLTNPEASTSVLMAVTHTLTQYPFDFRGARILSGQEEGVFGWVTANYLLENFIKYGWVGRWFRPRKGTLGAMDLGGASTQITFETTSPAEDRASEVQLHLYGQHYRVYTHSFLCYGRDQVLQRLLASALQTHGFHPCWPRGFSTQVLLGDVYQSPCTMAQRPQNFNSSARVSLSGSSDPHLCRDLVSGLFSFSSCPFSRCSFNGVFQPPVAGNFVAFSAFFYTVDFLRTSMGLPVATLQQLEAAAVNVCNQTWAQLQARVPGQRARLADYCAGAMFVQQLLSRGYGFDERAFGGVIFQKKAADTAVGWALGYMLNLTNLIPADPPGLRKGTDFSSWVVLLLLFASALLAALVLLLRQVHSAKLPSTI

human NTPDase3 [2] = molecular target: T2, human NTPDase3; assay: Hydrolysis by human NTPDase3; format: in vitro ADME; set-up: made in house; host or cells: COS-7 cells (transfected; protein extract); conditions: for Hydrolysis by NTPDase3: 100 μM, 1 h, activity with 100 μM ATP = 100%
human NTPDase1 = molecular target: T4, human NTPDase1 (Homo sapiens, UniProt P49961); assay: Inhibition of NTPDase1 activity; conditions: for effect on human NTPDase1 activity: Table 5, ATP and analogue 100 μM, 100% activity = ATP alone, read as inhibition; for inhibition of the hydrolysis of ATP by NTPDase1: analogue and ATP 100 μM
T4 sequence (P49961 1-510): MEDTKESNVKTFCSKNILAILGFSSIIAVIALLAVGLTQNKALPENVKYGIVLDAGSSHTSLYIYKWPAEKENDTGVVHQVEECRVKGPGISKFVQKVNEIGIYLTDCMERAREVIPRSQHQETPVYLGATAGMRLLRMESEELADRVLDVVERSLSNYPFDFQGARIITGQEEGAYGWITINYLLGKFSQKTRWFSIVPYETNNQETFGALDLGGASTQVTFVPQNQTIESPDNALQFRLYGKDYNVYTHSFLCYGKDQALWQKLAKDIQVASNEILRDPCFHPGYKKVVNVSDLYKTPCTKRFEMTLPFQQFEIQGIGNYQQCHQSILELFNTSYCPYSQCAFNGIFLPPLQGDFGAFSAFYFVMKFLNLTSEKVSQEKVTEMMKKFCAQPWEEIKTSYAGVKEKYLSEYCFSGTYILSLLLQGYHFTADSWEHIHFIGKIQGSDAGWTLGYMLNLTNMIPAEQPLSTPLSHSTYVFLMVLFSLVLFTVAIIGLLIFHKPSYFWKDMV

human NTPDase8 = molecular target: T5, human NTPDase8 (Homo sapiens, UniProt Q5MY95); assay: Hydrolysis by human NTPDase8; format: in vitro ADME; conditions: for Hydrolysis by NTPDase8: 100 μM, 1 h, activity with 100 μM ATP = 100%
T5 construct: made in house; host or cells: COS-7 cells (transfected; protein extract)
T5 sequence (Q5MY95 1-495): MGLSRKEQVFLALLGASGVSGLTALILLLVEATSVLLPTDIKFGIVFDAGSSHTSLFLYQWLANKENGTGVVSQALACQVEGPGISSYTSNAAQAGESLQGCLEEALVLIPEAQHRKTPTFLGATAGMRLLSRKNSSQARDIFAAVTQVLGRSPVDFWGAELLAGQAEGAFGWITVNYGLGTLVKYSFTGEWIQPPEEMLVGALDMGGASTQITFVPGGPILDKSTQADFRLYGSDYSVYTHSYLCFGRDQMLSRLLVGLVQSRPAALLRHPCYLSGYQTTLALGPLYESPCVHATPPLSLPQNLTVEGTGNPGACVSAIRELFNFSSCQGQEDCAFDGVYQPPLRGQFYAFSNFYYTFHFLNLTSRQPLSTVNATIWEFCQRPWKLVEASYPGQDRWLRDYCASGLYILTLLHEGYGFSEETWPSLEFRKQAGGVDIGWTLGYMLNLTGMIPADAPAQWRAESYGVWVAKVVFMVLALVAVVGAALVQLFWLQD

Nc1ncnc2c1ncn2[C@@H]1O[C@H](COP(O)(=S)OP(=O)(O)C(Cl)(Cl)P(=O)(O)O)[C@@H](O)[C@H]1O (single isomer, unassigned) [APPCCl2P-α-S, adenosine 5′-[Pα-thio]-β,γ-(dichloromethylene)triphosphate]
EC50 (human P2Y11-R): > 10 µM

Nc1ncnc2c1ncn2[C@@H]1O[C@H](COP(O)(=S)OP(=O)(O)C(Cl)(Cl)P(=O)(O)O)[C@@H](O)[C@H]1O (single isomer, unassigned; isomer a) [APPCCl2P-α-S (isomer A), adenosine 5′-[Pα-thio]-β,γ-(dichloromethylene)triphosphate]
effect on human NTPDase3 activity (human NTPDase3 [1]; listed as APPCCl2P-α-S A): 21.8 ± 1.0% | inhibition of the hydrolysis of ATP by NTPDase3 (human NTPDase3 [1]): did not interfere | effect on human NTPDase2 activity (human NTPDase2; listed as APPCCl2P-α-S A): 11.2 ± 0.5% | inhibition of the hydrolysis of ATP by NTPDase2 (human NTPDase2): did not interfere | Hydrolysis by NTPDase3 (human NTPDase3 [2]; listed as APPCCl2P-α-S A): 5.2 ± 0.2% | effect on human NTPDase1 activity (human NTPDase1; listed as APPCCl2P-α-S A): 0.5 ± 0.01% | inhibition of the hydrolysis of ATP by NTPDase1 (human NTPDase1): did not interfere | Hydrolysis by NTPDase8 (human NTPDase8; listed as APPCCl2P-α-S A): 4.3 ± 0.1% | agonism at the P2Y11-receptor (human P2Y11-R): not an agonist

Nc1ncnc2c1ncn2[C@@H]1O[C@H](COP(O)(=S)OP(=O)(O)CP(=O)(O)O)[C@@H](O)[C@H]1O (single isomer, unassigned; isomer a) [APPCP-α-S (isomer A), adenosine 5′-[Pα-thio]-β,γ-methylenetriphosphate]
effect on human NTPDase3 activity (human NTPDase3 [1]; listed as APPCP-α-S A): 40.2 ± 2.0% | inhibition of the hydrolysis of ATP by NTPDase3 (human NTPDase3 [1]): did not interfere | effect on human NTPDase2 activity (human NTPDase2; listed as APPCP-α-S A): 16.3 ± 0.6% | inhibition of the hydrolysis of ATP by NTPDase2 (human NTPDase2): did not interfere | Hydrolysis by NTPDase3 (human NTPDase3 [2]; listed as APPCP-α-S A): 4.2% | effect on human NTPDase1 activity (human NTPDase1; listed as APPCP-α-S A): 58.4 ± 2.1% | inhibition of the hydrolysis of ATP by NTPDase1 (human NTPDase1): did not interfere | Hydrolysis by NTPDase8 (human NTPDase8; listed as APPCP-α-S A): 4.4% | agonism at the P2Y11-receptor (human P2Y11-R): not an agonist

Nc1ncnc2c1ncn2[C@@H]1O[C@H](COP(O)(=S)OP(=O)(O)C(Cl)(Cl)P(=O)(O)O)[C@@H](O)[C@H]1O (single isomer, unassigned; isomer b) [APPCCl2P-α-S (isomer B), adenosine 5′-[Pα-thio]-β,γ-(dichloromethylene)triphosphate]
effect on human NTPDase3 activity (human NTPDase3 [1]; listed as APPCCl2P-α-S B): 24.0 ± 1.2% | inhibition of the hydrolysis of ATP by NTPDase3 (human NTPDase3 [1]): did not interfere | effect on human NTPDase2 activity (human NTPDase2; listed as APPCCl2P-α-S B): 12.7 ± 0.5% | inhibition of the hydrolysis of ATP by NTPDase2 (human NTPDase2): did not interfere | Hydrolysis by NTPDase3 (human NTPDase3 [2]; listed as APPCCl2P-α-S B): 5.4% | effect on human NTPDase1 activity (human NTPDase1; listed as APPCCl2P-α-S B): 21.6 ± 1.0% | inhibition of the hydrolysis of ATP by NTPDase1 (human NTPDase1): did not interfere | Hydrolysis by NTPDase8 (human NTPDase8; listed as APPCCl2P-α-S B): 5.3% | times more potent than ATP at the P2Y11 receptor (human P2Y11-R): 2 fold

Nc1ncnc2c1ncn2[C@@H]1O[C@H](COP(O)(=S)OP(=O)(O)CP(=O)(O)O)[C@@H](O)[C@H]1O (single isomer, unassigned; isomer b) [APPCP-α-S (isomer B), adenosine 5′-[Pα-thio]-β,γ-methylenetriphosphate]
effect on human NTPDase3 activity (human NTPDase3 [1]; listed as APPCP-α-S B): 18.7 ± 0.8% | inhibition of the hydrolysis of ATP by NTPDase3 (human NTPDase3 [1]): did not interfere | effect on human NTPDase2 activity (human NTPDase2; listed as APPCP-α-S B): 9.9 ± 0.4% | inhibition of the hydrolysis of ATP by NTPDase2 (human NTPDase2): did not interfere | Hydrolysis by NTPDase3 (human NTPDase3 [2]; listed as APPCP-α-S B): 4.8 ± 0.2% | effect on human NTPDase1 activity (human NTPDase1; listed as APPCP-α-S B): 0.5 ± 0.02% | inhibition of the hydrolysis of ATP by NTPDase1 (human NTPDase1): did not interfere | Hydrolysis by NTPDase8 (human NTPDase8; listed as APPCP-α-S B): 5.3 ± 0.2% | times more potent than ATP at the P2Y11 receptor (human P2Y11-R): 7 fold

Nc1ncnc2c1ncn2[C@@H]1O[C@H](COP(=O)(O)OP(O)(O)=S)[C@@H](O)[C@H]1O [ADP-β-S, adenosine 5′-[β-thio]diphosphate, reference compound]
inhibition of the hydrolysis of ATP by NTPDase3 (human NTPDase3 [1]): less than 50% | inhibition of the hydrolysis of ATP by NTPDase2 (human NTPDase2): less than 50% | Relative hydrolysis by NTPDase3 (human NTPDase3 [2]): 2 ± 0.1 % ± SD of ADP or AP2A hydrolysis | inhibition of the hydrolysis of ATP by NTPDase1 (human NTPDase1): less than 50% | Relative hydrolysis by NTPDase8 (human NTPDase8): 14 ± 0.1 % ± SD of ADP or AP2A hydrolysis

adenosine-5′-tetrathiobisphosphonate
inhibition of the hydrolysis of ATP by NTPDase2 (human NTPDase2): 42% | inhibition of the hydrolysis of ATP by NTPDase1 (human NTPDase1): 54% | Relative hydrolysis by NTPDase8 (human NTPDase8): 7 ± 1 % ± SD of ADP or AP2A hydrolysis

di-adenosine-5′,5″-tetrathiobisphosphonate
inhibition of the hydrolysis of ATP by NTPDase3 (human NTPDase3 [1]): 5-20% | inhibition of the hydrolysis of ATP by NTPDase2 (human NTPDase2): 5-20% | Relative hydrolysis by NTPDase3 (human NTPDase3 [2]): 2.0 ± 0.1 % ± SD of ADP or AP2A hydrolysis | inhibition of the hydrolysis of ATP by NTPDase1 (human NTPDase1): ~60% | Relative hydrolysis by NTPDase8 (human NTPDase8): 3.0 ± 0.1 % ± SD of ADP or AP2A hydrolysis
